Tests used:
[1] = Fluorescence pH switching; conditions: for change in fluorescence: pH changed from 11 to 2
Method: Samples for fluorescence were prepared as 1.00 mM stock solutions in MeOH. A 30.0 μL aliquot of solution was then added to 3.000 mL of the appropriate solvent mixture (a combination of methanol and phosphate buffered saline—PBS) giving a final concentration of 10.0 μM for each complex. […] Glucose additions were performed by the addition of a concentrated solution of glucose in PBS to a stirred solution of fluorophore in a cuvette.

[2] = Cyclic voltammetry (glassy carbon, Ag/AgCl reference, 0.1 M NBu4ClO4 in acetonitrile); format: physicochemical; conditions: for first oxidation potential (amine) / first reduction potential: vs. Ag/AgCl; for Amine Oxidation Potential E° (D^+/D) / Fluorophore Reduction Potential E° (A/A^−): Ag/AgCl reference
Method: Samples for FT IR spectroscopy were prepared as solutions in CHCl3, and only the C═O stretches are reported. Unless otherwise stated, all NMR spectra were recorded at 500 MHz for ^1H and 125 MHz for ^13C at 20-25° C. using CDCl3 as the solvent. Unless stated otherwise, mass spectra were obtained using electrospray ionization (50 V) with a 50/50 methanol/water solvent mixture with ^1% acetic acid added. Cyclic voltammetry was conducted using a glassy carbon working electrode, platinum counter electrode, and Ag/AgCl reference electrode and carried out in a 0.1 M solution of NBu4ClO4 in acetonitrile.
(§1) Summarized Syntheses. As the syntheses are described as a series of analogous compounds with general procedures are given below. Cyclic voltammetry was conducted using a glassy carbon working electrode, platinum counter electrode, and Ag/AgCl reference electrode and carried out in a 0.1 M solution of NBu4ClO4 in acetonitrile. Samples for fluorescence were prepared as 1.00 mM stock solutions in MeOH. A 30.0 μL aliquot of solution was then added to 3.000 mL of the appropriate solvent mixture (a combination of methanol and phosphate buffered saline—PBS). Relative quantum yields were determined by the relative output of equimolar solutions of two compounds using 3ay as a reference. Glucose additions were performed by the addition of a concentrated solution of glucose in PBS to a stirred solution of the fluorescent molecule in methanol/PBS.
(§2) General. All reactions were performed under an atmosphere of N2, followed by work-up in air. Protected boronate esters were stored under vacuum to prevent slow hydrolysis from atmospheric moisture. Unless stated otherwise, all chemicals were purchased from commercial suppliers. Anhydrous solvents from Aldrich were used for all reactions. Starting compounds known in the art such as N-n-butyl-4-chloronaphthalene-1,8-dicarboximide(1ax), 2,2-dimethylpropane-1,3-diyl[o-(bromomethyl) phenyl]boronate, were prepared by literature methods (see e.g. Daffy et al. Chem-Eur J 1998, 4, 1810-1815; de Silva et al., Chem Rev 1997, 97, 1515-1566). Samples for FT IR spectroscopy were prepared as solutions in CHCl3, and only the C═O stretches are reported here. All mass spectra were obtained using electrospray ionization (ESI/MS) with an ionization potential of 50V and a solvent system consisting of 1% acetic acid in 50/50 methanol/water. Cyclic voltammetry was conducted using a glassy carbon working electrode, platinum counter electrode, and Ag/AgCl reference electrode and carried out in a 0.1 M solution of NBu4ClO4 in acetonitrile. Samples for fluorescence measurements were prepared as 1.00 mM stock solutions in MeOH. A 30.0 μL aliquot of solution was then added to 3.000 mL of the appropriate solvent mixture (a combination of methanol and phosphate buffered saline—PBS) giving a final concentration of 10.0 μM for each complex. Changes in pH were carried out by the addition of small volumes of concentrated hydrochloric acid, acetic acid, or sodium hydroxide. Glucose additions were performed by the addition of a concentrated solution of glucose in PBS to a stirred solution of fluorophore in a cuvette. Relative quantum yield measurements were carried out by measuring the relative intensities of equimolar solutions (10.0 μM) of two fluorophores. Compound 3ay was used as the reference.

[3] = Rehm-Weller estimate of free energy of photoinduced electron transfer (PET); format: physicochemical; conditions: for ΔGPET: Rehm-Weller estimate; for λ00: average of excitation and emission maxima
From the text: The search for new fluorescent glucose transducers based on photoelectron transfer (PET) requires, among other things, an understanding of the electrochemistry of any potential donor-acceptor pair. The free energy of PET (ΔGel) can be calculated using the Rehm-Weller equation shown below:
ΔGel(kcal mol^−1)=23.06[E^0(D^+/D)−E^0(A/A^−)]−wp−wr−ΔG00 where E^0(D^+/D) is the oxidation potential of the donor, E^0(A/A^−) is the reduction potential of the acceptor, and ΔG00 is the free energy corresponding to the equilibrium energy E00 (see e.g. Kavarnos, G. J. In Fundamentals of photoinduced electron transfer, VCH Publishers: New York, N.Y., 1993; p Chapter 1 and Rehm and Weller, Ist. J. Chem. 1970, 8, 259). The quantities wp and wr are Coulombic terms for the products and reactants, and ate found to be small in polar solvents. To simplify predictions, we assume wp and wr to be zero, and estimate E00 as the energy corresponding to [λmax(ex)+λmax(em)]/2 for each fluorophore.
ΔGPET=23.06[E^0(Z^oxidation)−E^0(F^reduction)]−ΔE00],
The electrochemical potentials can be measured using the individual molecular groups before assembling the complete molecule.
Electrochemistry. The search for new fluorescent glucose transducers based on PET requires, among other things, an understanding of the electrochemistry of any potential donor-acceptor pair. The free energy of PET (ΔGel) can be calculated using the Rehm-Weller equation shown in eq 1, where E^0(D^+/D) is the oxidation potential of the […]
ΔGe(kcal mol^−1)=23.06[E^0(D^+/D)−E^0(A/A^−)]−wp−wr−ΔG00 (1) donor, E^0(A/A^−) is the reduction potential of the acceptor, and ΔG00 is the free energy corresponding to the equilibrium energy E00. The quantities wp and wr are Coulombic terms for the products and reactants, and are found to be small in polar solvents. In our case, wr=0 since the reactants are neutral. To simplify predictions, we assume wp to be zero and estimate E00 as the energy corresponding to [λmax(ex)+λmax(em)]/2 for each fluorophore. […]
it is possible to estimate the free energy of photoinduced electron transfer (PET) in these systems (see e.g. Kavamos, G. J. Fundamentals of Photoinduced Electron Transfer, VCH: New York, 1993; pp 37-40). E0(D^+/D) and E^0(A/A^−) correspond to the […] of the electron donor (i.e. amine) and electron acceptor (i.e. fluorophore), respectively. The quantity ΔG00, is the equilibrium energy, which we estimate as the energy corresponding to the equilibrium wavelength λ00. As an estimate of λ00, we use the average of the excitation and emission maxima for each fluorophore. Smaller solvent-dependent work terms for the Coulombic interaction between the reactants and products are left out for simplicity. Since the mechanism of fluorescence switching in these systems depends on PET, this gives us a rough estimate of which fluorophores should give the best response to glucose.

[4] = vs. SCE, literature data for parent complexes; cited from earlier work
[5] = Glucose testing of naphthalimide boronates by fluorescence; conditions: PBS buffer (pH 7.4)
From the text: The fluorescence spectra of compounds 3 have been obtained as a function of increasing glucose concentration. […] These values range from 9% to 16% over the four compounds, with the two lower values coming from the two compounds having secondary amino groups. These low values of fractional switching are more than balanced out by the high quantum yields for compounds 3az and 3cz. As a measure of the total signal increase for each system, the product of quantum yield and fractional fluorescence increase are given in Table 1, showing that 3cz is the most promising sensor candidate of the group, as expected.
as §1
as §2, with “A 30.0 μL aliquot of solution was then added to 3.000 mL of the appropriate solvent mixture (a combination of methanol and phosphate buffered saline—PBS) giving a final concentration of 10.0 μM for each complex. Changes in pH were carried out by the addition of small volumes of concentrated hydrochloric acid, acetic acid, or sodium hydroxide. Glucose additions were performed by the addition of a concentrated solution of glucose in PBS to a stirred solution of fluorophore in a cuvette. Relative quantum yield measurements were carried out by measuring the relative intensities of equimolar solutions (10.0 μM) of two fluorophores. Compound 3ay was used as the reference.” left out

[6] = Fluorescence spectra and relative quantum yields of naphthalimide boronates; format: physicochemical; conditions: for Emission λmax / Excitation λmax / Relative Quantum Yield: PBS buffer (pH 7.4); for Relative Quantum Yield: equimolar 10.0 μM solutions, 3ay as reference
From the text: Sample excitation and emission spectra are shown in FIG. 27 for 3ay and 3cy, along with fluorescence maxima in Table 1. Literature references indicate a higher quantum yield for secondary-amine naphthalimide derivatives than for tertiary amines in otherwise similar compounds. The pragmatic value of this gain was examined, weighing synthetic difficulty against measurable relative quantum yields.
as §1, §2

Molecule	change in fluorescence [1] [%]	first oxidation potential (amine) [2] [V]	first reduction potential [2] [V]	signal increase ([1]; drop from pH 7 to pH 2) [%]	expected ΔGel ([3]; from literature reduction potentials of parent complexes) [kJ/mol]	reduction potential [4] [V]	ΔGPET [3] [kJ/mol]	λ00 [3] [nm]	Fluorescence Intensity Increase with added glucose (0 to 600 mg dL^−1) [5] [%]	Amine Oxidation Potential E° (D^+/D) [2] [V]	Fluorophore Reduction Potential E° (A/A^−) [2] [V]	change in quantum yield or wavelength maximum on removal of the THP protecting group [6]	Emission λmax [6] [nm]	Excitation λmax [6] [nm]	Relative Quantum Yield [6]
CCN(CC)Cc1ccnc(-c2cc(C)ccn2)c1.O=S(=O)([O-])C(F)(F)F.[C-]#[O+].[C-]#[O+].[C-]#[O+].[Re+].c1ccncc1 [(bpyCH2NEt2)Re(CO)3(py)](OTf), reference compound]	61	1.35	−1.20												
Cc1ccnc(-c2cc(CN(C)Cc3ccccc3)ccn2)c1.O=S(=O)([O-])C(F)(F)F.[C-]#[O+].[C-]#[O+].[C-]#[O+].[Re+].c1ccncc1 [[(bpyN)Re(CO)3(py)](OTf)]	930	1.34	−1.20	21											
[Cl][Ru][Cl].c1ccc(-c2ccccn2)nc1.c1ccc(-c2ccccn2)nc1.c1ccc(-c2ccccn2)nc1 [[Ru(bpy)3]Cl2, reference compound]					52.3	−1.31									
N-(5′-Tetrahydropyranoxypentyl)-4-(N′-aminoethylene-N″-ArBmethylamino)naphthalene-1,8-dicarboximide [Compound 3cz]							-5.02	480	10	1.00	−1.53	no significant change	525	435	51.2
N-(5′-Tetrahydropyranoxypentyl)-4-(N′-methylaminoethylene-N″-ArBmethylamino)naphthalene-1,8-dicarboximide [Compound 3cy]							-23	470	13	0.93	−1.47		525	415	1.32
N-n-Butyl-4-(N′-aminoethylene-N″-ArBmethylamino)naphthalene-1,8-dicarboximide [Compound 3az]							-2.59	485	9	1.05	−1.48		535	435	44.2
N-n-Butyl-4-(N′-methylaminoethylene-N″-ArBmethylamino)naphthalene-1,8-dicarboximide [Compound 3ay]							-20.1	478	16	0.91	−1.48		535	420	1

Reference: patent US6673625B2, “Saccharide sensing molecules having enhanced fluorescent properties” (The Regents of the University of California, priority 1999, dated 2004)
